Read-outs that look alike come from different tables or passages of the source.
How the values were obtained:
[1] = tested on: U46619-induced pulmonary vasoconstriction; test: Inhaled NO in lambs with U46619-induced pulmonary vasoconstriction; format: in vivo, Suffolk lambs
Excerpt: Eight Suffolk lambs weighing 25-35 kg underwent a sterile thoracotomy in order to place a left atrial line, tracheostomy and femoral artery line under general endotracheal anesthesia with halothane/oxygen three days before study. After three days of recovery the lambs underwent sterile placement of a 7 French thermal dilution pulmonary artery monitoring catheter under local anesthesia.
Awake unanesthetized lambs were studied in order to avoid general anesthesia which can blunt hypoxic vasoconstriction. Lambs were placed in a Babraham cage and allowed to drink and eat ad lib. Two studies were performed 2 days apart on each of six lambs. After the study the lambs were sacrificed with an overdose of barbiturate and heir lungs were fixed, stained and examined by light microscopy for pathological changes.
On the first study day lambs breathing 60-70% oxygen were given an infusion of a potent pulmonary vasoconstrictor, the stable endoperoxide analog (5Z, 9α, 13E, 15S)-11,9-(Epoxymethano)prosta-5,13-dien-1-oic acid (U46619, The Upjohn Company, Kalamazoo, Mich.) of thromboxane at a rate of 0.4-0.8 μg/kg/min. The tracheostomy was connected to a non-rebreathing circuit consisting of a 5 liter reservoir bag and one way valves to isolate inspired from expired gas. Expired gas was scavenged and discarded. The inspired gas was a precise mixture of oxygen and nitrogen immediately diluted with NO to produce the correct inspired concentration. Using volumetrically calibrated flowmeters, varying quantities of NO were mixed with N2 to obtain the desired inspired NO concentration at an inspired oxygen concentration (Fi O2) of 0.6-0.7. The reservoir bag was emptied after each level of NO inhalation. The residence half time of NO in the gas reservoir was 15 seconds or less to minimize conversion to NO2. NO was obtained from Air Products and Chemicals, Inc., Allentown, Pa. as a mixture of 235 ppm NO in pure N2. […] Fontijin, Anal. Chem. 27:1903 (1981).
Each level of NO exposure was followed by six minutes of breathing the oxygen mixture without NO (FIG. 2). A second exposure to NO was examined for similar periods. Subsequently, a control period breathing the oxygen mixture was studied six minutes after ceasing U46619 infusion. At each three and six minute time period after administering or discontinuing NO during the study, we measured mean and phasic pulmonary artery pressure (PAP), left atrial pressure (LAP), systemic arterial pressure (SAP) and central venous pressure (CVP). All pressures were recorded on a Hewlett Packard multi-channel strip chart recorder with transducers zeroed to atmospheric pressure at the mid point of the thorax (e.g., see FIG. 3). Cardiac output (CO) was measured by thermal dilution as the average of two determinations injecting 5 ml of 0° C. Ringers lactate. Pulmonary vascular resistance (PVR) and systemic vascular resistance (SVR) were computed by standard formulae; PVR measured at each inhaled NO concentration is shown in FIG. 4. Appropriate statistical analyses were performed, and all data were expressed as mean ± standard error.

[2] = tested on: persistent pulmonary hypertension of the newborn (PPHN); format: in vivo, human
Protocol: First subject. Through compassionate use, nitric oxide was administered to an infant suffering from persistent pulmonary hypertension and congenital heart disease. As a result of prolonged ventilation, absence of a preductal arterial blood sampling site, and the existence of the atrial-ventricular (AV) canal, the patient was not included in the PPHN study mentioned above.
The patient was a 3225 gm, full term person who had been treated with extracorporeal membrane oxygenation (ECMO) because of the severity of their congenital heart disease and profound hypoxemia. They had been taken off ECMO and was being maintained intubated and ventilated in the newborn intensive care unit. They subsequently became progressively hypoxemic, as reflected in their post-ductal pulse oximetry (POX) values. By the time they were taken to the catheterization laboratory to confirm the existence of the A-V canal and to determine if some emergent cardiac surgery was needed, they were receiving maximal medical and ventilatory life support and remained dangerously hypoxemic. Under these circumstances, we were granted consent to treat the patient with nitric oxide.
Upon arrival to the catheterization laboratory, the patient was extremely cyanotic. They were treated with fentanyl, oxygen, hyperventilation and intravenous fluid boluses to stabilize them prior to administering NO.
We utilized a regulator to step-down the pressure of the NO into a blender, which allowed us to adjust the relative amounts of the 800 ppm NO/N2 and 100% N2 supplies. Treating the patient with pure oxygen, we increased the flow of N2 through a flow regulator into the inspiratory circuit of the breathing cicuit until the FI O2 was 0.9. This provided a 1:10 dilution of the nitrogen gas. We then used the blender to adjust the relative amounts of N2 and […] to provide 0 to 80 ppm of NO.

[3] = regression vs NO concentration, eight lambs
[4] = NO 80 ppm, restarted after OFF #1

Q: Which results are given for `[N]=O` [NO, nitric oxide]?
A: PA pressure ([1]; 5 ppm NO (0.89 μg/kg/min)): significantly reduced the PA pressure; vasodilator response ([1]; 40 or 80 ppm NO): almost complete vasodilator response; PAP ([1]; 80 ppm NO for one hour, four lambs): pulmonary vasodilation to a normal PAP; time to nearly maximal vasodilator effect ([1]; FIG. 3): within three minutes; pulmonary hypertension after NO inhalation ([1]; after 80 ppm NO for one hour, four lambs): pulmonary hypertension recurring after NO inhalation; onset of pulmonary vasodilation ([1]; after beginning NO inhalation): within seconds; return to prior level of vasoconstriction after ceasing NO ([1]; after ceasing to inhale NO): within three to six minutes; pulmonary vasoconstriction and pulmonary hypertension ([1]; all dose levels of NO (5-80 ppm)): prompt reduction of the pulmonary vasoconstriction and pulmonary hypertension; CO [1, 3]: no significant change; SVR [1, 3]: no significant change; mean SAP [1, 3]: no significant change; vasodilator response of second exposure ([1]; second exposure to 5, 10 and 20 ppm NO): no significant reduction from the prior series of exposures; arterial saturation, pulse oximetry values and arterial partial pressure of oxygen ([2]; NO 20-80 ppm): modest increase in arterial saturation, pulse oximetry values, and arterial partial pressure of oxygen; effect on systemic blood pressure ([2]; NO 20-80 ppm): no adverse effect on systemic blood pressure; O2 SAT, PA ([2]; NO 20 ppm): 70%; O2 SAT, POX (pulse oximeter), postductal ([2]; NO 20 ppm): 91%; O2 SAT, RA ([2]; NO 20 ppm): 67%; O2 SAT, postductal ART ([2]; NO 20 ppm): 85%; mean pressure, ART ([2]; NO 20 ppm): 45 mmHg; mean pressure, PA ([2]; NO 20 ppm): 50 mmHg; mean pressure, RA ([2]; NO 20 ppm): 5 mmHg; postductal arterial PO2, ART ([2]; NO 20 ppm): 46 mmHg; O2 SAT, PA ([2]; NO 40 ppm): 74%; O2 SAT, POX (pulse oximeter), postductal ([2]; NO 40 ppm): 93%; O2 SAT, RA ([2]; NO 40 ppm): 72%; O2 SAT, postductal ART ([2]; NO 40 ppm): 74%; mean pressure, ART ([2]; NO 40 ppm): 43 mmHg; mean pressure, PA ([2]; NO 40 ppm): 52 mmHg; mean pressure, RA ([2]; NO 40 ppm): 4 mmHg; postductal arterial PO2, ART ([2]; NO 40 ppm): 50 mmHg; O2 SAT, PA ([2]; NO 80 ppm): 75%; O2 SAT, RA ([2]; NO 80 ppm): 74%; mean pressure, ART ([2]; NO 80 ppm): 47 mmHg; mean pressure, PA ([2]; NO 80 ppm): 53 mmHg; mean pressure, RA ([2]; NO 80 ppm): 5 mmHg; O2 SAT, POX (pulse oximeter), postductal ([2]; NO 80 ppm, first): 94%; O2 SAT, postductal ART ([2]; NO 80 ppm, first): 88%; postductal arterial PO2, ART ([2]; NO 80 ppm, first): 51 mmHg; O2 SAT, POX (pulse oximeter), postductal [2, 4]: 90%; O2 SAT, postductal ART [2, 4]: 85%; postductal arterial PO2, ART [2, 4]: 48 mmHg; arterial saturation and oxygen gas tension on discontinuation ([2]; after nitric oxide was discontinued): precipitously dropped; oxygen saturation and blood gas tension on restart ([2]; nitric oxide restarted): succeeded in improving the oxygen saturation and blood gas tension; gas exchange ([2]; pulmonary hypertension and congenital heart disease): improving gas exchange; oxygenation level on second weaning ([2]; subsequent attempt to wean off nitric oxide): deteriorated to dangerously low levels

Source: US5873359A, “Methods and devices for treating pulmonary vasoconstriction and asthma” (The General Hospital Corporation, priority 1994, dated 1999)
